Tested on: perennial ryegrass 96-3047
Experiment: Glyphosate applied at termination of the Maryland turf trial, plot survival
Assay type: in vivo, Lolium perenne L.
Conditions: glyphosate at 2-quarts per acre; plot 96-3047, Maryland trial, 1999; only plot in the trial not killed
Excerpt: ‘Replay’ was developed from a greenhouse cross made in 1992 of perennial ryegrass ‘APM’ (registered, Reg. No. CV-185, PI 565096) pollinated by perennial ryegrass ‘Birdie II’ (registered, Reg. No. 133, PI 537452) in Post Falls, Id. Progeny of this cross was planted in a 1992 spaced-plant nursery in Post Falls, Id., and designated as 92-0226. An open-pollinated selection from this population, designated as 93-0736, was harvested and planted in company turf trials in Post Falls, Id., and Poolesville, Md., in 1993. In 1995, plugs of 93-0736 were pulled from the Maryland plot based on the desirable characteristics of dark green color and turf performance, and then planted in a spaced-plant nursery in Post Falls, Id. In 1996, the perennial ryegrass 96-3047 was selected from this population and planted in company turf trials in both Post Falls, Id., and Poolesville, Md.
In 1999, during the termination of the Maryland trial, 96-3047 was the only plot in the trial that was not killed when glyphosate at the rate of 2-quarts per acre was applied. Survival in the plot was estimated at 30% and plugs were pulled, coded as 99-0089, and 200 plants of 99-0089 were planted in an isolation block in the 1999 Post Falls, Id. nursery.

O=C(O)CNCP(=O)(O)O [glyphosate, N-(phosphonomethyl) glycine]
Survival in the plot: ~30%

Source: patent US8604280B2, “Glyphosate tolerant perennial ryegrass named ‘replay’” (J.R. Simplot Company, priority 2009, dated 2013)
